Source: PubChem BioAssay AID1963984 (Molecular Pharmacology Branch, DTP, NCI, 2024)

Test system: 233499-124-R-J3-PDC spheroids with HUVEC/MSC, viability
Assay: Anticancer human tumor 233499-124-R-J3-PDC patient-derived colon adenocarcinoma cell line growth inhibition [PI3K]
Settings: for IC50: curve of first compound; for viability, T/C: stronger effect = lower value
Method in brief: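 We assembled tumor spheroids that included a stromal compartment of HUVEC and MSCs, then exposed them to targeted agents alone and together with PI3K pathway inhibitors. Concentration series descended by half-log from clinically achievable Cmax levels. Viability served as the endpoint.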

[1] = second compound 0.00316 µM, first compound 0.0316 µM
[2] = second compound 0.00316 µM, first compound 0.1 µM
[3] = second compound 0.01 µM, first compound 0.0316 µM
[4] = second compound 0.01 µM, first compound 0.1 µM
[5] = second compound 0.0316 µM, first compound 0.0316 µM
[6] = second compound 0.0316 µM, first compound 0.1 µM
[7] = second compound 0.1 µM, first compound 0.0316 µM
[8] = second compound 0.1 µM, first compound 0.1 µM
[9] = second compound 0.316 µM, first compound 0.0316 µM
[10] = second compound 0.316 µM, first compound 0.1 µM
[11] = second compound 1 µM, first compound 0.0316 µM
[12] = second compound 1 µM, first compound 0.1 µM
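Note: spheroids exposed to agents for seven days before readout.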
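Throughout, for viability, T/C: percent viability relative to DMSO vehicle control taken as 100%.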

In the case of `CC(C)n1nc(-c2ccc3oc(N)nc3c2)c2c(N)ncnc21` + COc1c(OCCCN2CCOCC2)ccc2c3n(c(=NC(=O)c4cnc(N)nc4)nc12)CCN3, the IC50 (second compound 0.00316 µM) is reported as > 0.1 µM, the IC50 (second compound 0.01 µM) is reported as > 0.1 µM and the IC50 (second compound 0.0316 µM) is reported as 0.0549 µM. For the same compound, the IC50 (second compound 0.1 µM) was 0.00517 µM, the IC50 (second compound 0.316 µM) was < 0.000316 µM and the IC50 (second compound 1 µM) was < 0.000316 µM. The viability, T/C (second compound 0.00316 µM, first compound 0.000316 µM) was 98.3%, the viability, T/C (second compound 0.00316 µM, first compound 0.001 µM) was 90.8% and the viability, T/C (second compound 0.00316 µM, first compound 0.00316 µM) was 74.6%. It also gave a viability, T/C (second compound 0.00316 µM, first compound 0.01 µM) of 80.3%, a viability, T/C [1] of 83% and a viability, T/C [2] of 65.1%. The viability, T/C (second compound 0.01 µM, first compound 0.000316 µM) was 84.1%, the viability, T/C (second compound 0.01 µM, first compound 0.001 µM) was 76.4% and the viability, T/C (second compound 0.01 µM, first compound 0.00316 µM) was 87.8%. For the same compound, the viability, T/C (second compound 0.01 µM, first compound 0.01 µM) was 80.5%, the viability, T/C [3] was 62.3% and the viability, T/C [4] was 60.2%. For the same compound, the viability, T/C (second compound 0.0316 µM, first compound 0.000316 µM) was 79.9%, the viability, T/C (second compound 0.0316 µM, first compound 0.001 µM) was 86.5% and the viability, T/C (second compound 0.0316 µM, first compound 0.00316 µM) was 73.7%. For the same compound, the viability, T/C (second compound 0.0316 µM, first compound 0.01 µM) was 80.6%, the viability, T/C [5] was 71% and the viability, T/C [6] was 27%. It also gave a viability, T/C (second compound 0.1 µM, first compound 0.000316 µM) of 77.5%, a viability, T/C (second compound 0.1 µM, first compound 0.001 µM) of 51.7% and a viability, T/C (second compound 0.1 µM, first compound 0.00316 µM) of 56%. For the same compound, the viability, T/C (second compound 0.1 µM, first compound 0.01 µM) was 46.8%, the viability, T/C [7] was 38.7% and the viability, T/C [8] was 16.9%. The viability, T/C (second compound 0.316 µM, first compound 0.000316 µM) was 28.4%, the viability, T/C (second compound 0.316 µM, first compound 0.001 µM) was 31.3% and the viability, T/C (second compound 0.316 µM, first compound 0.00316 µM) was 33.6%. For the same compound, the viability, T/C (second compound 0.316 µM, first compound 0.01 µM) was 18.6%, the viability, T/C [9] was 17.2% and the viability, T/C [10] was 9.14%. It also gave a viability, T/C (second compound 1 µM, first compound 0.000316 µM) of 7.93%, a viability, T/C (second compound 1 µM, first compound 0.001 µM) of 6.08% and a viability, T/C (second compound 1 µM, first compound 0.00316 µM) of 9.7%. For the same compound, the viability, T/C (second compound 1 µM, first compound 0.01 µM) was 5.56%, the viability, T/C [11] was 8.2% and the viability, T/C [12] was 2.93%.
`CC1(C)CCC(CN2CCN(c3ccc(C(=O)NS(=O)(=O)c4ccc(NCC5CCOCC5)c([N+](=O)[O-])c4)c(Oc4cnc5[nH]ccc5c4)c3)CC2)=C(c2ccc(Cl)cc2)C1` + COc1c(OCCCN2CCOCC2)ccc2c3n(c(=NC(=O)c4cnc(N)nc4)nc12)CCN3 was tested, and the IC50 (second compound 0.00316 µM) was > 10 µM, the IC50 (second compound 0.01 µM) was > 10 µM and the IC50 (second compound 0.0316 µM) was > 10 µM. The IC50 (second compound 0.1 µM) was 8.16 µM, the IC50 (second compound 0.316 µM) was < 0.0316 µM and the IC50 (second compound 1 µM) was < 0.0316 µM. It also gave a viability, T/C [1] of 93.8%, a viability, T/C [2] of 108% and a viability, T/C (second compound 0.00316 µM, first compound 0.316 µM) of 113%. For the same compound, the viability, T/C (second compound 0.00316 µM, first compound 1 µM) was 101%, the viability, T/C (second compound 0.00316 µM, first compound 3.16 µM) was 99% and the viability, T/C (second compound 0.00316 µM, first compound 10 µM) was 100%. It also gave a viability, T/C [3] of 96.7%, a viability, T/C [4] of 104% and a viability, T/C (second compound 0.01 µM, first compound 0.316 µM) of 92%. The viability, T/C (second compound 0.01 µM, first compound 1 µM) was 108%, the viability, T/C (second compound 0.01 µM, first compound 3.16 µM) was 101% and the viability, T/C (second compound 0.01 µM, first compound 10 µM) was 93.1%. The viability, T/C [5] was 96.5%, the viability, T/C [6] was 95% and the viability, T/C (second compound 0.0316 µM, first compound 0.316 µM) was 86.4%. The viability, T/C (second compound 0.0316 µM, first compound 1 µM) was 78.7%, the viability, T/C (second compound 0.0316 µM, first compound 3.16 µM) was 80.1% and the viability, T/C (second compound 0.0316 µM, first compound 10 µM) was 61.2%. It also gave a viability, T/C [7] of 60.6%, a viability, T/C [8] of 73.3% and a viability, T/C (second compound 0.1 µM, first compound 0.316 µM) of 55.5%. For the same compound, the viability, T/C (second compound 0.1 µM, first compound 1 µM) was 62.2%, the viability, T/C (second compound 0.1 µM, first compound 3.16 µM) was 53.3% and the viability, T/C (second compound 0.1 µM, first compound 10 µM) was 49.5%. It also gave a viability, T/C [9] of 19.8%, a viability, T/C [10] of 28.9% and a viability, T/C (second compound 0.316 µM, first compound 0.316 µM) of 15.3%. For the same compound, the viability, T/C (second compound 0.316 µM, first compound 1 µM) was 40.2%, the viability, T/C (second compound 0.316 µM, first compound 3.16 µM) was 17.5% and the viability, T/C (second compound 0.316 µM, first compound 10 µM) was 26.6%. The viability, T/C [11] was 7.27%, the viability, T/C [12] was 2.35% and the viability, T/C (second compound 1 µM, first compound 0.316 µM) was 15.9%. For the same compound, the viability, T/C (second compound 1 µM, first compound 1 µM) was 13.9%, the viability, T/C (second compound 1 µM, first compound 3.16 µM) was 6.93% and the viability, T/C (second compound 1 µM, first compound 10 µM) was 13.2%.
